Experiments:
[1] = tested on: Zoysiagrass; test: Turfgrass safety test (sod mat pots), visual phytotoxicity; assay type: in vivo, Zoysia japonica; conditions: for Phytotoxic effect, visual assessment: Zoysiagrass Week 2 / Phytotoxic effect, visual assessment: Zoysiagrass Week 4 / Phytotoxic effect, visual assessment: Zoysiagrass Week 6: 0-10 scale (10=completely killed)
From the text: (§1) Commercially available sod mats of zoysiagrass and bentgrass, Kentucky bluegrass, and perennial ryegrass were purchased. After cutting each turf sod mat in a size of 10 cm×20 cm, it was transplanted to a rectangular plastic pot having a surface area of 300 cm^2 wherein mixed soils including blend of a bed soil (Boonong, Horticultural Nursery Soil No. 3) and sandy loam soil were filled (mixing ratio, 1:1). After transplanting, the grass was mowed (0.5˜1.0 cm in height) once a week, and kept for one month in a greenhouse maintained at 25˜30° C. (day) or 15˜25° C. (night), then the test substance of the present invention was applied at dosage of 4, 2, 1 and 0.5 kg/ha. As a reference, Dithiopyr (32% EC, manufactured by Dongbu Hannong Chemical Company, KOREA) was applied at the recommended rate of 0.48 kg/ha, or twice or quadruple amount thereof, i.e., 0.96 and 1.92 kg/ha, respectively. Spray was made by a track sprayer equipped with a Teejet 8002 nozzle. Spray volume was adjusted to 2,000 L/ha, which was a typical value for an Asian (Korea and Japan) golf course. The spray solution was prepared by dissolving the “test substance” in acetone and adding the same volume of 0.2% (v/v) Tween 20 aqueous solution. Two, four or six weeks after the spray of the test substance, phytotoxicity to the turfgrass were visually evaluated based on 0 to 10 scale (0: no phytotoxic effect, 10: completely killed). The test was conducted in a randomized block design with a three replicates and the results were summarized in the following Table 2 is an average value of the replicates.

[2] = tested on: Kentucky bluegrass; test: as above; assay type: in vivo; conditions: 0-10 scale (10=completely killed)
From the text: as §1

[3] = tested on: Perennial ryegrass; test: as above; assay type: in vivo; conditions: 0-10 scale (10=completely killed)
From the text: as §1

[4] = tested on: Bentgrass; test: as above; assay type: in vivo; conditions: 0-10 scale (10=completely killed)
From the text: as §1

[5] = tested on: Large crabgrass; test: Herbicidal activity at different growth stages, fresh weight suppression; assay type: in vivo; conditions: fresh weight two weeks after treatment
Procedure: (§2) To a cup pot having a surface area of 100 cm^2 wherein mixed soils including blend bed soil (Boonong, Horticultural Bed Soil No. 3) and sandy loam soil were filled (mixing ratio, 1:1), seeds of large crabgrass and annual bluegrass were sown consecutively at an one week interval. The pots were moistened by sub-irrigation, and kept in a greenhouse maintained at 25˜30° C. (day) or 15˜25° C. (night). The said weeds were grown to various growth stages from pre-emergence to the four-leaf stage. Then, they were applied with the test substance of the present invention at dosage of 2, 1, 0.5, or 0.25 kg/ha. As a reference herbicide, Dithiopyr (32% EC, manufactured by Dongbu Hannong Chemical Company), was applied at 0.96, 0.48, or 0.24 kg/ha. Spray volume was adjusted to 2,000 L/ha. The method to spray of the test substance and prepare spray solutions were the same as described above. The reference herbicide was used after it was diluted with 0.2% (v/v) Tween 20 aqueous solution. The test was conducted in a randomized block design with three replicates. Two weeks after the treatment, plant parts remained above the pot soil surface were cut and the fresh weight was weighed. Results are given by a suppression ratio relative to the biomass that was obtained from the untreated group (see, Table 3).

[6] = tested on: Annual bluegrass; test: as above; assay type: in vivo; conditions: fresh weight two weeks after treatment
Procedure: as §2, with “Then, they were applied with the test substance of the present invention at dosage of 2, 1, 0.5, or 0.25 kg/ha. As a reference herbicide, Dithiopyr (32% EC, manufactured by Dongbu Hannong Chemical Company), was applied at 0.96, 0.48, or 0.24 kg/ha.” left out

Compound: CSC(=O)c1c(C(F)F)nc(C(F)(F)F)c(C(=O)SC)c1CC(C)C [Dithiopyr, reference compound]
- Phytotoxic effect, visual assessment: Zoysiagrass Week 2 ([1]; 0.48 kg/ha (recommended rate)): 1.0
- Phytotoxic effect, visual assessment: Zoysiagrass Week 4 ([1]; 0.48 kg/ha (recommended rate)): 1.0
- Phytotoxic effect, visual assessment: Zoysiagrass Week 6 ([1]; 0.48 kg/ha (recommended rate)): 0.7
- Phytotoxic effect, visual assessment: Zoysiagrass Week 2 ([1]; 0.96 kg/ha): 2.3
- Phytotoxic effect, visual assessment: Zoysiagrass Week 4 ([1]; 0.96 kg/ha): 1.5
- Phytotoxic effect, visual assessment: Zoysiagrass Week 6 ([1]; 0.96 kg/ha): 1.3
- Phytotoxic effect, visual assessment: Zoysiagrass Week 2 ([1]; 1.92 kg/ha): 3.7
- Phytotoxic effect, visual assessment: Zoysiagrass Week 4 ([1]; 1.92 kg/ha): 3.3
- Phytotoxic effect, visual assessment: Zoysiagrass Week 6 ([1]; 1.92 kg/ha): 3.0
- Phytotoxicity against zoysiagrass (in words) ([1]; in vivo): clearly evidencing the phytotoxicity
- Phytotoxic effect, visual assessment: Kentucky bluegrass Week 2 ([2]; 0.48 kg/ha (recommended rate)): 1.5
- Phytotoxic effect, visual assessment: Kentucky bluegrass Week 4 ([2]; 0.48 kg/ha (recommended rate)): 0.5
- Phytotoxic effect, visual assessment: Kentucky bluegrass Week 6 ([2]; 0.48 kg/ha (recommended rate)): 0.7
- Phytotoxic effect, visual assessment: Kentucky bluegrass Week 2 ([2]; 0.96 kg/ha): 2.2
- Phytotoxic effect, visual assessment: Kentucky bluegrass Week 4 ([2]; 0.96 kg/ha): 2.7
- Phytotoxic effect, visual assessment: Kentucky bluegrass Week 6 ([2]; 0.96 kg/ha): 2.7
- Phytotoxic effect, visual assessment: Kentucky bluegrass Week 2 ([2]; 1.92 kg/ha): 3.7
- Phytotoxic effect, visual assessment: Kentucky bluegrass Week 4 ([2]; 1.92 kg/ha): 4.2
- Phytotoxic effect, visual assessment: Kentucky bluegrass Week 6 ([2]; 1.92 kg/ha): 4.2
- Phytotoxic effect, visual assessment: Perennial ryegrass Week 2 ([3]; 0.48 kg/ha (recommended rate)): 1.3
- Phytotoxic effect, visual assessment: Perennial ryegrass Week 4 ([3]; 0.48 kg/ha (recommended rate)): 0.3
- Phytotoxic effect, visual assessment: Perennial ryegrass Week 6 ([3]; 0.48 kg/ha (recommended rate)): 0.3
- Phytotoxic effect, visual assessment: Perennial ryegrass Week 2 ([3]; 0.96 kg/ha): 2.0
- Phytotoxic effect, visual assessment: Perennial ryegrass Week 4 ([3]; 0.96 kg/ha): 2.0
- Phytotoxic effect, visual assessment: Perennial ryegrass Week 6 ([3]; 0.96 kg/ha): 1.3
- Phytotoxic effect, visual assessment: Perennial ryegrass Week 2 ([3]; 1.92 kg/ha): 3.3
- Phytotoxic effect, visual assessment: Perennial ryegrass Week 4 ([3]; 1.92 kg/ha): 2.7
- Phytotoxic effect, visual assessment: Perennial ryegrass Week 6 ([3]; 1.92 kg/ha): 2.3
- Phytotoxic effect, visual assessment: Bentgrass Week 2 ([4]; 0.48 kg/ha (recommended rate)): 1.5
- Phytotoxic effect, visual assessment: Bentgrass Week 4 ([4]; 0.48 kg/ha (recommended rate)): 0.3
- Phytotoxic effect, visual assessment: Bentgrass Week 6 ([4]; 0.48 kg/ha (recommended rate)): 0.3
- Phytotoxic effect, visual assessment: Bentgrass Week 2 ([4]; 0.96 kg/ha): 2.3
- Phytotoxic effect, visual assessment: Bentgrass Week 4 ([4]; 0.96 kg/ha): 1.7
- Phytotoxic effect, visual assessment: Bentgrass Week 6 ([4]; 0.96 kg/ha): 2.0
- Phytotoxic effect, visual assessment: Bentgrass Week 2 ([4]; 1.92 kg/ha): 3.3
- Phytotoxic effect, visual assessment: Bentgrass Week 4 ([4]; 1.92 kg/ha): 4.2
- Phytotoxic effect, visual assessment: Bentgrass Week 6 ([4]; 1.92 kg/ha): 4.2
- Suppression ratio relative to the biomass of the untreated group: Large crabgrass 1 leaf ([5]; .24 kg/ha): 100%
- Suppression ratio relative to the biomass of the untreated group: Large crabgrass 2 leaf ([5]; .24 kg/ha): 89%
- Suppression ratio relative to the biomass of the untreated group: Large crabgrass 3 leaf ([5]; .24 kg/ha): 86%
- Suppression ratio relative to the biomass of the untreated group: Large crabgrass 4 leaf ([5]; .24 kg/ha): 56%
- Suppression ratio relative to the biomass of the untreated group: Large crabgrass PRE ([5]; .24 kg/ha): 100%
- Suppression ratio relative to the biomass of the untreated group: Large crabgrass 1 leaf ([5]; .48 kg/ha): 100%
- Suppression ratio relative to the biomass of the untreated group: Large crabgrass 2 leaf ([5]; .48 kg/ha): 95%
- Suppression ratio relative to the biomass of the untreated group: Large crabgrass 3 leaf ([5]; .48 kg/ha): 89%
- Suppression ratio relative to the biomass of the untreated group: Large crabgrass 4 leaf ([5]; .48 kg/ha): 57%
- Suppression ratio relative to the biomass of the untreated group: Large crabgrass PRE ([5]; .48 kg/ha): 100%
- Suppression ratio relative to the biomass of the untreated group: Large crabgrass 1 leaf ([5]; .96 kg/ha): 100%
- Suppression ratio relative to the biomass of the untreated group: Large crabgrass 2 leaf ([5]; .96 kg/ha): 98%
- Suppression ratio relative to the biomass of the untreated group: Large crabgrass 3 leaf ([5]; .96 kg/ha): 89%
- Suppression ratio relative to the biomass of the untreated group: Large crabgrass 4 leaf ([5]; .96 kg/ha): 66%
- Suppression ratio relative to the biomass of the untreated group: Large crabgrass PRE ([5]; .96 kg/ha): 100%
- Suppression ratio relative to the biomass of the untreated group: Annual bluegrass 1 leaf ([6]; .24 kg/ha): 90%
- Suppression ratio relative to the biomass of the untreated group: Annual bluegrass 2 leaf ([6]; .24 kg/ha): 87%
- Suppression ratio relative to the biomass of the untreated group: Annual bluegrass 3 leaf ([6]; .24 kg/ha): 46%
- Suppression ratio relative to the biomass of the untreated group: Annual bluegrass 4 leaf ([6]; .24 kg/ha): 4%
- Suppression ratio relative to the biomass of the untreated group: Annual bluegrass PRE ([6]; .24 kg/ha): 100%
- Suppression ratio relative to the biomass of the untreated group: Annual bluegrass 1 leaf ([6]; .48 kg/ha): 95%
- Suppression ratio relative to the biomass of the untreated group: Annual bluegrass 2 leaf ([6]; .48 kg/ha): 88%
- Suppression ratio relative to the biomass of the untreated group: Annual bluegrass 3 leaf ([6]; .48 kg/ha): 44%
- Suppression ratio relative to the biomass of the untreated group: Annual bluegrass 4 leaf ([6]; .48 kg/ha): 10%
- Suppression ratio relative to the biomass of the untreated group: Annual bluegrass PRE ([6]; .48 kg/ha): 100%
- Suppression ratio relative to the biomass of the untreated group: Annual bluegrass 1 leaf ([6]; .96 kg/ha): 97%
- Suppression ratio relative to the biomass of the untreated group: Annual bluegrass 2 leaf ([6]; .96 kg/ha): 91%
- Suppression ratio relative to the biomass of the untreated group: Annual bluegrass 3 leaf ([6]; .96 kg/ha): 61%
- Suppression ratio relative to the biomass of the untreated group: Annual bluegrass 4 leaf ([6]; .96 kg/ha): 35%
- Suppression ratio relative to the biomass of the untreated group: Annual bluegrass PRE ([6]; .96 kg/ha): 100%

Reference: patent US8445409B2, “Use of 5-benzyloxymethyl-1,2-isoxazoline derivatives as a herbicide” (Moghu Research Center Ltd., priority 2007, dated 2013)
